Measured values as given in patent US11419806B2, “Prebiotic oral care methods using a saccharide” (Colgate-Palmolive Company, priority 2013, dated 2022).

Tests used:
Test in all cases: Twenty-four hour biofilm growth (crystal violet)
Type in all cases: cell-based
A. actinomycetemcomitans = test system: A. actinomycetemcomitans
Protocol: (§1) The increase in biofilm formation of the tested bacteria in response to selected saccharides (D-turanose, D-lactitol, myo-inositol, and N-acetyl-D-mannosamine) was investigated by setting up biofilm growth assays in a nutritionally rich medium (brain heart infusion broth (BHI), Oxoid), over 24 hours. Late exponential growth phase liquid cultures were prepared by transferring the respective bacterium from blood agar plates to BHI and overnight incubation at 37° C. in an anaerobic atmosphere for A. viscosus, V. parvula, P. gingivalis, P. intermedia, T. forsythia, A. naeslundii, and C. sputigena, and in a 5% CO2 environment for S. salivarius, S. sanguinis, S. mitis, A. actinomycetemcomitans, S. mutans, and S. gordonii. Overnight cultures were transferred to BHI and adjusted to a concentration of 1×10^7 CFU/ml by measuring the optical density at 600 nm (OD600) (BioRad SmartSpec 3000). For each strain, 200 μl of the bacterial suspension was added to a 96-well plate containing 20 μl of the respective saccharides. Final concentrations of the saccharides were set to 5, 10, 20 and 25 μmol/ml. […] Additionally, for each bacterium tested, a background control, to correct for background staining, was added. This background control contained the bacterium tested and 0.03 weight % chlorhexidine, as an antiseptic. Plates were incubated as previously described. After 24 hrs the supernatant was removed from the wells of the plates. The wells were washed twice with 1×100 μL PBS (phosphate buffered saline), fixed for 20 minutes with 96% vol. ethanol (96% vol. solution in water) and the biofilm retained at the bottom of the wells was stained with 1 weight % crystal violet (1 weight % solution in water). The bound dye was dissolved with 5% vol. acetic acid (5% vol. solution in water). Quantification of the stained biofilm was performed by measuring the absorbance at 630 nm using a Multiskan Ascent microplate reader (Thermo Scientific).
(§2) The experiment was carried out on three different days (thus providing 3 biological replicas) and each day the experiment was carried out in quadruple (thus providing 4 technical replicas) for each combination of bacterium with saccharide and for each control. For each day and for each combination, the average (mean) of the values obtained (as detailed above) for the four technical replicas was calculated to provide a single value for each combination on each day. The values shown in Tables 7a, 7b, 8a, 8b, below, are the average (mean) of the three single values obtained for each combination of bacterium with saccharide.

A. naeslundii = test system: A. naeslundii
Protocol: as §1, §2

A. viscosus = test system: A. viscosus
Protocol: as §1, §2

C. sputigena = test system: C. sputigena
Protocol: as §1, §2

P. gingivalis = test system: P. gingivalis
Protocol: as §1, §2

P. intermedia = test system: P. intermedia
Protocol: as §1, §2

S. gordonii = test system: S. gordonii
Protocol: as §1, §2

S. mitis = test system: S. mitis
Protocol: as §1, §2

S. mutans = settings: S mutans
Protocol: as §1, §2

S. salivarius = test system: S. salivarius
Protocol: as §1, §2

S. sanguinis = test system: S. sanguinis
Protocol: as §1, §2

T. forsythia = test system: T. forsythia
Protocol: as §1, §2

V. parvula = test system: V. parvula
Protocol: as §1, §2

## O[C@H]1[C@H](O)[C@@H](O)[C@H](O)[C@@H](O)[C@H]1O [Myo-Inositol, (1R,2R,3S,4S,5R,6S)-cyclohexane-1,2,3,4,5,6-hexol]
A. actinomycetemcomitans; 5 μmol/ml
  biofilm growth: OD 630 nm at 24 hrs divided by OD of control (control = 1): 0.8323
A. actinomycetemcomitans; 10 μmol/ml
  biofilm growth: OD 630 nm at 24 hrs divided by OD of control (control = 1): 0.8378
A. actinomycetemcomitans; 20 μmol/ml
  biofilm growth: OD 630 nm at 24 hrs divided by OD of control (control = 1): 0.9661
A. actinomycetemcomitans; 25 μmol/ml
  biofilm growth: OD 630 nm at 24 hrs divided by OD of control (control = 1): 0.9898
A. naeslundii; 5 μmol/ml
  biofilm growth: OD 630 nm at 24 hrs divided by OD of control (control = 1): 1.0309
A. naeslundii; 10 μmol/ml
  biofilm growth: OD 630 nm at 24 hrs divided by OD of control (control = 1): 1.0353
A. naeslundii; 20 μmol/ml
  biofilm growth: OD 630 nm at 24 hrs divided by OD of control (control = 1): 1.0270
A. naeslundii; 25 μmol/ml
  biofilm growth: OD 630 nm at 24 hrs divided by OD of control (control = 1): 1.0456
A. viscosus; 5 μmol/ml
  biofilm growth: OD 630 nm at 24 hrs divided by OD of control (control = 1): 0.8136
A. viscosus; 10 μmol/ml
  biofilm growth: OD 630 nm at 24 hrs divided by OD of control (control = 1): 0.8735
A. viscosus; 20 μmol/ml
  biofilm growth: OD 630 nm at 24 hrs divided by OD of control (control = 1): 0.8117
A. viscosus; 25 μmol/ml
  biofilm growth: OD 630 nm at 24 hrs divided by OD of control (control = 1): 0.8167
C. sputigena; 5 μmol/ml
  biofilm growth: OD 630 nm at 24 hrs divided by OD of control (control = 1): 0.9276
C. sputigena; 10 μmol/ml
  biofilm growth: OD 630 nm at 24 hrs divided by OD of control (control = 1): 0.9522
C. sputigena; 20 μmol/ml
  biofilm growth: OD 630 nm at 24 hrs divided by OD of control (control = 1): 0.9758
C. sputigena; 25 μmol/ml
  biofilm growth: OD 630 nm at 24 hrs divided by OD of control (control = 1): 0.8233
P. gingivalis; 5 μmol/ml
  biofilm growth: OD 630 nm at 24 hrs divided by OD of control (control = 1): 0.9325
P. gingivalis; 10 μmol/ml
  biofilm growth: OD 630 nm at 24 hrs divided by OD of control (control = 1): 0.9657
P. gingivalis; 20 μmol/ml
  biofilm growth: OD 630 nm at 24 hrs divided by OD of control (control = 1): 0.9448
P. gingivalis; 25 μmol/ml
  biofilm growth: OD 630 nm at 24 hrs divided by OD of control (control = 1): 1.0290
P. intermedia; 5 μmol/ml
  biofilm growth: OD 630 nm at 24 hrs divided by OD of control (control = 1): 1.1539
P. intermedia; 10 μmol/ml
  biofilm growth: OD 630 nm at 24 hrs divided by OD of control (control = 1): 1.2210
P. intermedia; 20 μmol/ml
  biofilm growth: OD 630 nm at 24 hrs divided by OD of control (control = 1): 1.1660
P. intermedia; 25 μmol/ml
  biofilm growth: OD 630 nm at 24 hrs divided by OD of control (control = 1): 1.0417
S. gordonii; 5 μmol/ml
  biofilm growth: OD 630 nm at 24 hrs divided by OD of control (control = 1): 0.6178
S. gordonii; 10 μmol/ml
  biofilm growth: OD 630 nm at 24 hrs divided by OD of control (control = 1): 0.6384
S. gordonii; 20 μmol/ml
  biofilm growth: OD 630 nm at 24 hrs divided by OD of control (control = 1): 0.6650
S. gordonii; 25 μmol/ml
  biofilm growth: OD 630 nm at 24 hrs divided by OD of control (control = 1): 0.6716
S. mitis; 5 μmol/ml
  biofilm growth: OD 630 nm at 24 hrs divided by OD of control (control = 1): 1.2433
S. mitis; 10 μmol/ml
  biofilm growth: OD 630 nm at 24 hrs divided by OD of control (control = 1): 1.0616
S. mitis; 20 μmol/ml
  biofilm growth: OD 630 nm at 24 hrs divided by OD of control (control = 1): 1.1754
S. mitis; 25 μmol/ml
  biofilm growth: OD 630 nm at 24 hrs divided by OD of control (control = 1): 1.1357
S. mutans; 5 μmol/ml
  biofilm growth: OD 630 nm at 24 hrs divided by OD of control (control = 1): 0.9177
S. mutans; 10 μmol/ml
  biofilm growth: OD 630 nm at 24 hrs divided by OD of control (control = 1): 1.0152
S. mutans; 20 μmol/ml
  biofilm growth: OD 630 nm at 24 hrs divided by OD of control (control = 1): 1.1995
S. mutans; 25 μmol/ml
  biofilm growth: OD 630 nm at 24 hrs divided by OD of control (control = 1): 1.4107
S. salivarius; 5 μmol/ml
  biofilm growth: OD 630 nm at 24 hrs divided by OD of control (control = 1): 0.8358
S. salivarius; 10 μmol/ml
  biofilm growth: OD 630 nm at 24 hrs divided by OD of control (control = 1): 0.9694
S. salivarius; 20 μmol/ml
  biofilm growth: OD 630 nm at 24 hrs divided by OD of control (control = 1): 0.8119
S. salivarius; 25 μmol/ml
  biofilm growth: OD 630 nm at 24 hrs divided by OD of control (control = 1): 0.8202
S. sanguinis; 5 μmol/ml
  biofilm growth: OD 630 nm at 24 hrs divided by OD of control (control = 1): 2.4209
S. sanguinis; 10 μmol/ml
  biofilm growth: OD 630 nm at 24 hrs divided by OD of control (control = 1): 2.3658
S. sanguinis; 20 μmol/ml
  biofilm growth: OD 630 nm at 24 hrs divided by OD of control (control = 1): 2.1878
S. sanguinis; 25 μmol/ml
  biofilm growth: OD 630 nm at 24 hrs divided by OD of control (control = 1): 2.1240
T. forsythia; 5 μmol/ml
  biofilm growth: OD 630 nm at 24 hrs divided by OD of control (control = 1): 0.6841
T. forsythia; 10 μmol/ml
  biofilm growth: OD 630 nm at 24 hrs divided by OD of control (control = 1): 0.6396
T. forsythia; 20 μmol/ml
  biofilm growth: OD 630 nm at 24 hrs divided by OD of control (control = 1): 0.7688
T. forsythia; 25 μmol/ml
  biofilm growth: OD 630 nm at 24 hrs divided by OD of control (control = 1): 0.6940
V. parvula; 5 μmol/ml
  biofilm growth: OD 630 nm at 24 hrs divided by OD of control (control = 1): 1.0021
V. parvula; 10 μmol/ml
  biofilm growth: OD 630 nm at 24 hrs divided by OD of control (control = 1): 1.1121
V. parvula; 20 μmol/ml
  biofilm growth: OD 630 nm at 24 hrs divided by OD of control (control = 1): 1.0036
V. parvula; 25 μmol/ml
  biofilm growth: OD 630 nm at 24 hrs divided by OD of control (control = 1): 1.0399
